Several values for one entry are separate records, joined by “and”; a condition that tells them apart may be missing. Equal entries are not always repeated. Where two headings read alike, the source gives them in different places.
What was measured:
[1] = test system: glucose metabolism in the brain
Caco-2 = Caco-2 permeability with and without P-gp inhibitor verapamil; conditions: absence of a P-gp inhibitor
[2] = time point 1.0, individual rats
[3] = time point 3.0, individual rats
[4] = time point 5.0, individual rats
[5] = time point 7.0, individual rats
[6] = time point 12.0, individual rats
[7] = 3 mg, White Matter as Reference Region
[8] = 3 mg, Whole Brain as Reference Region
[9] = 10 mg, White Matter as Reference Region
[10] = 10 mg, Whole Brain as Reference Region
[11] = 30 mg, White Matter as Reference Region
[12] = 30 mg, Whole Brain as Reference Region
[13] = 90 mg, White Matter as Reference Region
[14] = 90 mg, Whole Brain as Reference Region

CCc1oc(-c2ccc(OC)cc2)nc1CCOc1ccc2c(c1)CC[C@H]2CC(=O)[O-].[Na+] [Example 11, Sodium (S)-2-(5-(2-(5-ethyl-2-(4-methoxyphenyl)oxazol-4-yl)ethoxy)-2,3-dihydro-1H-inden-1-yl)acetate]
B/P Ratio [2]: 0.22 and 0.36 and 0.51 | Brain Tissue Cone. [2]: 226 ng/g and 161 ng/g and 101 ng/g | Average (B/P Ratio) (time point 1.0, three rats): 0.361 | B/P Ratio [3]: 0.26 and 0.21 and 0.19 | Brain Tissue Cone. [3]: 234 ng/g and 269 ng/g and 274 ng/g | Plasma Conc. [3]: 1270 ng/mL and 1430 ng/mL | Average (B/P Ratio) (time point 3.0, three rats): 0.220 | B/P Ratio [4]: 0.17 and 0.18 and 0.16 | Brain Tissue Cone. [4]: 208 ng/g and 247 ng/g and 333 ng/g | Plasma Conc. [4]: 1260 ng/mL and 1340 ng/mL and 2040 ng/mL | Average (B/P Ratio) (time point 5.0, three rats): 0.171 | B/P Ratio [5]: 0.16 and 0.35 and 0.47 | Brain Tissue Cone. [5]: 203 ng/g and 216 ng/g | Average (B/P Ratio) (time point 7.0, three rats): 0.328 | B/P Ratio [6]: 0.30 and 0.44 and 0.31 | Brain Tissue Cone. [6]: 104 ng/g and 114 ng/g and 117 ng/g | Plasma Conc. [6]: 345 ng/mL and 259 ng/mL and 377 ng/mL | Average (B/P Ratio) (time point 12.0, three rats): 0.350 | Δ R CMRgI (EOT-BL) Sensory Motor Cortex Left, Ave [1, 7]: −0.0005 | Δ R CMRgI (EOT-BL) Sensory Motor Cortex Right, Ave [1, 7]: −0.0151 | Δ R CMRgI (EOT-BL) Visual Cortex Left, Ave [1, 7]: −0.0219 | Δ R CMRgI (EOT-BL) Visual Cortex Right, Ave [1, 7]: −0.0272 | Δ R CMRgI (EOT-BL) Sensory Motor Cortex Left, Ave [1, 8]: 0.0152 | Δ R CMRgI (EOT-BL) Sensory Motor Cortex Right, Ave [1, 8]: −0.0037 | Δ R CMRgI (EOT-BL) Visual Cortex Left, Ave [1, 8]: −0.0196 | Δ R CMRgI (EOT-BL) Visual Cortex Right, Ave [1, 8]: −0.0269 | spatial extent of ROSDs with positive ΔR CMRgl (EOT-BL) relative to Whole Brain ([1]; 10 mg): 70 voxels | Δ R CMRgI (EOT-BL) Sensory Motor Cortex Left, Ave [1, 9]: 0.0005 | Δ R CMRgI (EOT-BL) Sensory Motor Cortex Right, Ave [1, 9]: −0.0005 | Δ R CMRgI (EOT-BL) Visual Cortex Left, Ave [1, 9]: −0.0014 | Δ R CMRgI (EOT-BL) Visual Cortex Right, Ave [1, 9]: −0.0033 | Δ R CMRgI (EOT-BL) Sensory Motor Cortex Left, Ave [1, 10]: 0.0008 | Δ R CMRgI (EOT-BL) Sensory Motor Cortex Right, Ave [1, 10]: 0.0003 | Δ R CMRgI (EOT-BL) Visual Cortex Left, Ave [1, 10]: −0.0032 | Δ R CMRgI (EOT-BL) Visual Cortex Right, Ave [1, 10]: −0.0053 | Δ R CMRgI (EOT-BL) Sensory Motor Cortex Left, Ave [1, 11]: −0.0040 | Δ R CMRgI (EOT-BL) Sensory Motor Cortex Right, Ave [1, 11]: −0.0229 | Δ R CMRgI (EOT-BL) Visual Cortex Left, Ave [1, 11]: −0.0314 | Δ R CMRgI (EOT-BL) Visual Cortex Right, Ave [1, 11]: −0.0408 | Δ R CMRgI (EOT-BL) Sensory Motor Cortex Left, Ave [1, 12]: 0.0213 | Δ R CMRgI (EOT-BL) Sensory Motor Cortex Right, Ave [1, 12]: −0.0040 | Δ R CMRgI (EOT-BL) Visual Cortex Left, Ave [1, 12]: −0.0158 | Δ R CMRgI (EOT-BL) Visual Cortex Right, Ave [1, 12]: −0.0271 | Δ R CMRgI (EOT-BL) Sensory Motor Cortex Left, Ave [1, 13]: −0.0076 | Δ R CMRgI (EOT-BL) Sensory Motor Cortex Right, Ave [1, 13]: −0.0078 | Δ R CMRgI (EOT-BL) Visual Cortex Left, Ave [1, 13]: −0.0775 | Δ R CMRgI (EOT-BL) Visual Cortex Right, Ave [1, 13]: −0.0730 | Δ R CMRgI (EOT-BL) Sensory Motor Cortex Left, Ave [1, 14]: 0.0244 | Δ R CMRgI (EOT-BL) Sensory Motor Cortex Right, Ave [1, 14]: 0.0251 | Δ R CMRgI (EOT-BL) Visual Cortex Left, Ave [1, 14]: −0.0685 | Δ R CMRgI (EOT-BL) Visual Cortex Right, Ave [1, 14]: −0.0604 | dose dependence of effect on FDG-PET outcomes ([1]; 3 to 90 mg): dose-dependent | effect on glucose metabolism in the brain ([1]; two week treatment): altered the glucose metabolism in the brain | Blood Brain Barrier penetration inferred from FDG-PET ([1]; voxel-wise (SPM) analysis, even at the lowest 3 mg): penetrates the Blood Brain Barrier (BBB) | Papparent (Caco-2): 114.4 ×10⁻⁶ cm/s
